Measured values: patent US5877165A, “Boronated porhyrins and methods for their use” (priority 1997, dated 1999)
Values joined by “and” are separate entries in the source; they are usually repeats but may differ in a detail not shown here. Equal entries are not always repeated. Where two headings read alike, the source gives them in different places.

Key:
[1] = Toxicity testing of NiTCP, MnTCP and CuTCP in normal mice (Example 13, Table 3); format: in vivo, BALB/c mice; conditions: 4 days after last of 6 ip injections
Protocol: (§1) Levels of glucose [GLU], blood urea nitrogen [BUN], blood creatinine [BCR], alanine transaminase [ALT], aspartate transaminase [AST], alkaline phosphatase [ALP], total protein [TPR], albumin [ALB], and creatine phosphokinase [CPK] were determined in blood plasma using a Cobas Fara II microanalysis system. Blood platelets [PLT] and white blood cells [WBC] were counted using a Serono-Baker System 9000 automated hematology microanalyzer.
Compounds prepared as in Example 1B and 1C were formulated with 6% Cremophor EL [CRM] and 12% propylene glycol [PrG] in saline. Total doses of MnTCP and CuTCP of 174 and 223 μg/g body weight, respectively, were administered to normal BALB/c mice. Each mouse was given 6 intraperitoneal [ip] injections over a period of 32 hours. Mice were euthanized 4 days after the last injection and chemical, enzymatic and hematological analyses of their blood were compared to those of similar mice given NiTCP at a dose of 252 μg/g body weight.

[2] = system: 9L gliosarcomas; set-up: species or system Fischer 344 rats; conditions: rat, in vivo
Protocol: (§2) CuTCP-H as prepared in Example 1D was formulated with 9% CRM and 18% PrG to form a solution to which saline was added dropwise to yield 3.34 mg/ml of CuTCP and […] CuTCP-H, respectively. The resulting total doses were 215 mg/kg body weight for CuTCP and 149 mg/kg body weight for CuTCP-H. These solutions were then utilized for toxicity and biodistribution experiments in rats.
(§3) Direct current plasma-atomic emission spectroscopy [DCP-AES] (ARL/Fisons Model SS-7) was used (detection limit: 0.1 μg/ml). Samples (50-130 mg) were digested at 60° C. with sulfuric acid:nitric acid (1:1). Triton X-100 and water were added to give final concentrations of ≈50 mg tissue/ml, 15% total acid v/v and 5% Triton X-100 v/v. Fat and liver tissues were assayed for ^10 B by prompt-gamma spectroscopy (Fairchild, et al., 1986). The prompt-gamma measurements were multiplied by 5.0 to give the total boron concentrations due to the use of boron of natural isotope abundance in the syntheses of all boronated porphyrins reported.
CuTCP-H (146-152 mg/kg body weight) was given to four Fischer 344 rats each bearing four subcutaneous 9L gliosarcomas. A solution of 3.34 mg CuTCP-H/mL, in 9% CRM and 18% PrG, was given to rats by 48-hour i.v. infusion in a total volume of 9.6 mL.

[3] = system: EMT-6 tumors; test: Experiment IV: boron concentrations in tissues, mice bearing EMT-6 tumors (Table 10); format: in vivo, BALB/c mice; conditions: 90 hrs after last of 5 ip CuTCP (160 μg/gbw); BPA (837 μg/gbw) 1 ip 6 hr before euthanasia; 836 mg/kg
Protocol: (§4) Lipophilic porphyrins 1, 2, 4, 5, and 6 were injected as emulsions in either 3% or 9% CRM and either 6% or 18% PRG with saline as previously described in Example 2 above. Water soluble porphyrins 3 and 7 were dissolved in saline. BPA was solubilized as a fructose complex.
(§5) Female BALB/c mice (from Taconic Farms, Germantown, N.Y.) (20-25 g) were implanted with either KHJJ or EMT-6 tumors according to the procedure described in Example 3A above.
(§6) Under deep halothane anesthesia leading to euthanasia, right ventricular blood was collected in Microtainer (Becton-Dickinson, Rutherford, N.J.) tubes containing EDTA for hematological analyses and boron assays of whole blood and in Microtainer™ tubes containing lithium heparin for chemical analyses and enzyme assays of blood plasma. Tumor, brain, fat, muscle, and liver tissues were sampled at necropsy for boron analyses.
(§7) In Experiment IV, samples of BPA (836 μg/gbw), CuTCP (160 μg/gbw) and a combination of both were tested in mice with EMT-6 tumors. BPA was given in a single i.p. injection and mice were euthanized 6 hours later. CuTCP was given in 5 i.p. injections over 28 hours and mice were euthanized 90 hrs after the last injection. The group receiving both CuTCP and BPA were injected with CuTCP five times over 28 hours as was the CuTCP-only group and then with a single i.p. injection of BPA 6 hours prior to euthanasia which was 90 hours after the last injection of CuTCP.
(§8) Hematological, chemical and enzymatic tests were carried out as described in Example 3 above. Nonparametric statistical analyses were carried out using the Wilcoxon Two-Sample Test in accordance with procedures described in Slatkin, D.N., 1995. Boron analyses were conducted in accordance with the procedure described in Example 3 above. Fat and liver tissues were assayed for ^10 B by prompt-gamma spectroscopy as described in Fairchild, et al., 1986. These measurements were multiplied by 5.0 to give total boron concentrations due to the use of boron of natural isotope abundance in the syntheses of all boronated porphyrins reported.

[4] = as above; format: in vivo, BALB/c mice; conditions: mouse, ip, 837 mg/kg, BPA fructose complex, 6 hr, tumor model not restated
Protocol: as §4, §5, §6, §7, §8

[5] = Hematological, enzymatic and chemical blood analyses and weight change, mice with KHJJ mammary carcinomas (Examples 4-7, Table 1); format: in vivo, BALB/c mice; conditions: NiTCP 160 or BPA 900 μg/gbw; 6-78 hr
Protocol: Female BALB/c mice (Taconic Farms, Germantown, N.Y.) (20-25 g) were implanted with either KHJJ or EMT-6 tumors. For KHJJ tumors, 1-3 mm^3 tumor fragments were implanted subcutaneously (s.c.) in the dorsal thorax of each mouse using an 18-gauge trocar. For EMT-6 tumors, 2.5×10^5 cells were implanted similarly using a 27-gauge needle. EMT-6 tumor cells were grown alternately in vivo and in vitro. Single-cell suspensions were prepared from mouse-grown tumors by trypsinization. These were grown in cell culture for several passages and then were frozen in 10% DMSO and stored in liquid nitrogen. Prior to implantation in mice, the cells were thawed and grown in tissue culture in Alpha-MEM with 10% FBS for several passages. […]
as §1, with “microanalyzer. […]” for “microanalyzer.”

[6] = system: KHJJ mammary carcinomas; test: Boron biodistribution, mice with KHJJ mammary carcinomas (Examples 4-7, Table 1); format: in vivo, BALB/c mice; conditions: 6 hr after last i.p. injection; BPA 900 or NiTCP 160 μg/gbw; median (range); 900 mg/kg, 360 min
Protocol: (§9) Female BALB/c mice (Taconic Farms, Germantown, N.Y.) (20-25 g) were implanted with either KHJJ or EMT-6 tumors. For KHJJ tumors, 1-3 mm^3 tumor fragments were implanted subcutaneously (s.c.) in the dorsal thorax of each mouse using an 18-gauge trocar. For EMT-6 tumors, 2.5×10^5 cells were implanted similarly using a 27-gauge needle. EMT-6 tumor cells were grown alternately in vivo and in vitro. Single-cell suspensions were prepared from mouse-grown tumors by trypsinization. These were grown in cell culture for several passages and then were frozen in 10% DMSO and stored in liquid nitrogen. Prior to implantation in mice, the cells were thawed and grown in tissue culture in Alpha-MEM with 10% FBS for several passages.
as §6, §3
(§10) Seven mice having KHJJ mammary carcinomas were given one intraperitoneal (i.p.) injection of 900 μg/g body weight of the boron compound presently used for BNCT of malignant brain tumors, p-boronophenylalanine (BPA) complexed with fructose. BPA was prepared in accordance with procedure described in Coderre, et al., 1996 incorporated herein by reference in its entirety as if set forth in full.
(§11) Mice were euthanized during the collection of blood while under Halothane anesthesia. At necropsy, the apparent states of structural integrity, consistency, color or abnormality, if any, of tissues were observed and tumor, brain and liver tissues were collected from each mouse for boron analysis.
(§12) Eight mice having KHJJ mammary carcinomas were injected with the NiTCP solution in the amount of 160 μg NiTCP/g body weight (36 μgB/g body weight) in six i.p. injections over 20 hours.
(§13) Six hours after the mice were last injected with NiTCP, mice were euthanized during the collection of blood while under Halothane anesthesia and right ventricular blood was collected from each mouse for hematological and chemical analysis without pooling the samples. At necropsy, the apparent states of structural integrity, consistency, color, or abnormality, if any, of tissues were observed and tumor, brain and liver tissues were collected from each mouse for boron analysis without pooling the samples.
(§14) Seven mice having KHJJ mammary carcinomas were injected with the NiTCP solution in the amount of 160 μg NiTCP/g body weight (36 μgB/g body weight) in six i.p. injections over 20 hours.
as §13, with “Sixteen hours” for “Six hours”, “were” for “were last”, “boron analysis. […]” for “boron analysis without pooling the samples.”

[7] = as above; format: in vivo, BALB/c mice; conditions: mouse, ip, 900 mg/kg, 6 hr after last i.p. injection, BPA 900 or NiTCP 160 μg/gbw, median (range)
Protocol: as §9, §6, §3, §10, §11, §12, §13, §14
as §13, with “Sixteen hours” for “Six hours”, “were” for “were last”, “boron analysis. […]” for “boron analysis without pooling the samples.”

[8] = clinical BNCT (Coderre, et al., 1997); cited from earlier work
[9] = Overall ranking of boronated porphyrins for BNCT guided by biodistribution and toxicity tests in mice (Table 11)
Protocol: The higher the numerical value, the better the performance of that porphyrin for that property. […] Although VCDP was able to deliver therapeutic amounts of boron to tumor, such side effects such as thrombocytopenia, which was induced within 3 hours after injections, weight loss, and the altered hepatic enzymes were serious enough to rank VCDP considerably behind the TCP's and the TCP-H's (Miura et al., 1992). In addition, the 80-hour drug administration period and the 90-hour blood clearance period are of great inconvenience. Moreover, this 4-day difference between the VCDP and the TCP (or TCP-H) dose and clearance schedules would translate into a 4-day greater delay between initiation of drug administration and neutron irradiation which would allow greater tumor growth to occur.
[…]
biodistribution and toxicity tests in mice. An asterisk indicates

[10] = system: 9L gliosarcomas; set-up: species or system Fischer 344 rats; conditions: rat, in vivo, iv
Protocol: 2C. Preparation of CuTCP and CuTCP-H Solution for Rat Studies
as §2, §3
Male Fischer 344 rats each bearing 4 subcutaneous 9L gliosarcomas were given 210-219 mg CuTCP/kg body wt by 48-h iv infusion. Tumor and blood were sampled at 0, 1, 2, and 3 days after the end of infusion for boron analyses and blood for toxicity. Rats were euthanized on day 3 and other organs were analyzed for boron uptake.

Manganese Tetracarboranylphenylporphyrin [MnTCP]
toxicity / thrombocytopenia, in words [1]: little if any difference in toxicity

Copper Tetracarboranylporphyrin Hydride [CuTCP-H]
tumor:blood ratio (boron) ([2]; 2880 min): 16:1
Boron concentration, Blood ([2]; iv, 149 mg/kg, 0 h): 183 (160-205) μg B/g
Boron concentration, Tumor ([2]; iv, 149 mg/kg, 0 h): 45 (23-51) μg B/g
Boron concentration, Blood ([2]; iv, 149 mg/kg, 24 h): 62 (56-65) μg B/g
Boron concentration, Tumor ([2]; iv, 149 mg/kg, 24 h): 46 (35-52) μg B/g
Boron concentration, Blood ([2]; iv, 149 mg/kg, 120 h): 0.6 (0.3-0.7) μg B/g
Boron concentration, Cerebellum ([2]; iv, 149 mg/kg, 120 h): 2.8 (2.1-6.2) μg B/g
Boron concentration, Cerebrum ([2]; iv, 149 mg/kg, 120 h): 4.9 (2.2-6.9) μg B/g
Boron concentration, Liver ([2]; iv, 149 mg/kg, 120 h): 345 (336-408) μg B/g
Boron concentration, Tumor ([2]; iv, 149 mg/kg, 120 h): 31 (23-55) μg B/g

N[C@@H](Cc1ccc(B(O)O)cc1)C(=O)O [BPA, p-boronophenylalanine]
Boron concentration, Blood [3]: 2.0 (1.2-3.6) μg B/g
Boron concentration, Brain [3]: 8.1 (5.9-9.6) μg B/g
Boron concentration, Fat [3]: 0.4 (0-1.8) μg B/g
Boron concentration, Liver [3]: 2.1 (0.1-3.1) μg B/g
Boron concentration, Muscle [3]: 3.8 (2.1-7.9) μg B/g
Boron concentration, Tumor [3]: 5.4 (3.5-23) μg B/g and 5.4 μg B/g
concentration at 6 h ([4]; blood, read-out: Blood boron): 2000 ng/g
concentration at 6 h ([4]; brain, read-out: Brain boron, median): 8000 ng/g
toxicity, in words [5]: undetectable, minimal, or negligible in every respect
Boron Concentration: Tumor [6]: ≈ 14 μg B/g
concentration at 6 h ([7]; blood, read-out: Boron Concentration: Blood): 4600 ng/g
concentration at 6 h ([7]; brain, read-out: Boron Concentration: Brain): 7200 ng/g
concentration at 6 h ([7]; tumor, read-out: Boron Concentration: Tumor): 13800 ng/g
brain and blood boron concentrations relative to tumor [8]: approximately one-third that found in tumor
chemical toxicity, in words [8]: not eliciting any chemical toxicity

Copper Tetracarboranylphenylporphyrin [CuTCP]
toxicity / thrombocytopenia, in words [1]: little if any difference in toxicity
Drug tolerance/deliverable boron (ranking) [9]: 4
Lipophilicity (ranking) [9]: 2
Tumor uptake (normalized) (ranking) [9]: 3
Tumor:Blood (ranking) [9]: 3
time to rapid and almost total clearance of boron in blood [10]: ≤ 2 days
Boron concentration in tumor ([10]; 215 mg/kg, 0 h): 54-68 μg B/g
Boron concentration in tumor ([10]; 215 mg/kg, 48 h): 38-69 μg B/g
boron in cerebellum ([10]; 215 mg/kg, 48 h): 1.5 μg B/g
boron in cerebrum ([10]; 215 mg/kg, 48 h): 2.5 μg B/g
median boron in blood ([10]; 215 mg/kg, 48 h): 6 μg B/g
median boron in tumor ([10]; 215 mg/kg, 48 h): 55 μg B/g
average boron concentration, cerebellum ([10]; 215 mg/kg, 72 h): 1-2 μg B/g
average boron concentration, cerebrum ([10]; 215 mg/kg, 72 h): 1-2 μg B/g
